Our source for the Stability towards moisture, Thermal stability and Solubility values is US20250186435A1, “PHARMACEUTICAL FORMULATIONS AND THEIR PREPARATIONS FOR TREATMENT OF CANCER” (priority 2020, published 2025).

A short description of series [1]: Moisture and thermal sensitivity of CLX-155. The format is physicochemical. From the text:
Dry granulation is also referred as pre-compression or double compression and is an agglomeration process designed to improve the flow and compression characteristics of powders that would otherwise have poor flow &/or compressibility. The process involves compaction of powder particles into larger pieces or compacts which are subsequently broken down into granules that can be further processed into dosage forms. Dry granulation is suitable for the compound which is sensitive to moisture and temperature.

Series [2] can be described thus: Solubility of API CLX-155 in organic solvents. The class given is physicochemical.

Take `CCCCCCCC(=O)Nc1nc(=O)n([C@@H]2O[C@H](C)[C@@H](OC(C)=O)[C@H]2OC(C)=O)cc1F` [CLX-155, (2R, 3R, 4R, 5R)-2-(5-Fluoro-4-octanamido 2-oxopyrimidine-1(2H)-yl)-5-methyl-tetrahydrofuran-3,4-diyl-diacetate]: in series [1], the Stability towards moisture entry is reported as “moisture sensitive” and the Thermal stability entry is given as “thermolabile”. Also, the Solubility entry in series [2] (in Acetonitrile) was “Slightly Soluble”. Also, the Solubility entry in series [2] (in Methanol) was “Freely soluble”.
